Measurements taken from US20070134793A1, “REDIFFERENTIATION MEDIUM FOR MAKING […] CHONDROCYTE TO BE […] INTO CHONDROCYTE” (priority 2004, published 2007).

Test system: dedifferentiated chondrocyte (P4, derived from human auricular cartilage)
Assay: Study of preferable amount of each component in the redifferentiation medium (type II collagen expression)
Type: cell-based
Details: insulin 50, 5, 0.5 μg/mL compared; BMP-2 200 ng/mL, T3 10^-7 M

Substance: insulin
- content of insulin at which the expression amount of type II collagen was the largest: 5 µg/mL
